Laboratory results reported in a melting point compilation (Tetko et al.; mined from patent text by program, amines drawn as free bases though some values may be those of a salt).

Structure (SMILES) | melting point
COC(=O)Cn1c(Cl)c(Cl)c(Cl)c1Cl | 115 °C
CCOC(=O)C(C#N)(Cc1ccc(OC)c(OC)c1)C(OCC)OCC (stereo not drawn) | 62 to 65 °C
COc1cc(C(=O)N2Cc3ccccc3Cc3ccccc32)ccc1NC(=O)c1ccc(Cl)cc1Cl | 212 to 214 °C
COc1cc2c(cc1OC)C(C)C(C)=NN=C2c1cccc(Cl)c1 (stereo not drawn) | 156 to 158 °C
C[C@@H]1OCCN(c2cc(N3CCOCC3)nc(-n3c(C(F)F)nc4ccccc43)n2)[C@@H]1C (relative stereo) | 167 to 169 °C
COc1ccc(C)cc1-c1cc(F)cc2c1OC(CN)C2 (stereo not drawn) | 110 to 111 °C
CCCOc1cc(C)c(NC(=O)C(C)Br)c(C)c1 (stereo not drawn) | 148 °C
CN(C)S(=O)(=O)CCc1ccccc1S(N)(=O)=O | 134 to 136 °C
Nc1cc(-n2cc(C(=O)O)c(=O)c3cc(F)c(F)cc32)c(F)cc1F | > 270 °C
COc1nn(CC(C)=O)c(=O)s1 | 66 to 67 °C
COc1cc(C)c(C(=O)c2c(Cl)cccc2Cl)c(O)c1O | 182 °C
CC1COCc2nc3c(N)nc4cc(C=CC(=O)N(C)C)ccc4c3n21 (stereo not drawn) | > 250 °C
O=C(O)Cc1ccc(OCCNC(=O)C2Cc3ccccc3N2S(=O)(=O)c2ccc(-c3ccc(Cl)cc3)c(C(F)(F)F)c2)cc1 (stereo not drawn) | 92 °C
CNC(=S)NCCSCc1c[nH]cn1 | 96 to 98 °C
C[C@H](N)Cn1ncc2ccc(C(N)=O)cc21 | 170 to 172 °C
Cc1cccc(NC(=O)NC2N=C(c3ccccc3F)c3ccccc3N(Cc3nccc4ccccc34)C2=O)c1 (racemic) | 145 to 147 °C
OCC1Cc2ccccc2OC1CO (stereo not drawn) | 82 to 85 °C
CCN(CC)C(=O)Nc1ccc(S(=O)(=O)N2C(=O)C(N[C@@H](C)C(=O)OC)(c3ccccc3Cl)c3cc(Cl)ccc32)cc1 (stereo partly drawn) | 204 °C
CC1(C)CC(=O)C(C(=S)Nc2ccc(Cl)c(C(F)(F)F)c2)C(=O)C1 | 101 to 102 °C
O=C(CCc1ccccc1)Nc1cccc(C(=O)NN=C2C(=O)Nc3ccc(I)cc32)c1 | 293 °C
Cn1cc(C(=O)NCc2ccc(Cl)cc2)c(=O)c2cc(CN3CCOCC3)cc(C#CCN3CCC(O)C3)c21 (stereo not drawn) | 144 to 146 °C
CC(C)(C(=O)O)C1CCN(Cc2ccccc2)CC1 | 195 °C
CC(=O)OCC1OC(OC2OC(CO)C(O)C(O)C2O)C(OC(C)=O)C(OC(C)=O)C1OC(C)=O (stereo not drawn) | 120 °C

Structure (SMILES) | melting point
CC(=O)N1c2cc(Cl)ccc2OP1c1ccccc1 (stereo not drawn) | 56 to 58 °C
CC(C)(C)OC(=O)c1ncn2c1[C@@H]1CCCN1C(=O)c1sccc1-2 | 226 to 227 °C
CC(O)c1ccc(C2=CCCCC2)cc1 (stereo not drawn) | 60 to 62 °C
Fc1ccc2[nH]cc(C3=CCN(CC4CCc5ccc6ncccc6c5O4)CC3)c2c1 (stereo not drawn) | 148 °C
Nc1ncc2ncn([C@H]3C=C[C@@H](O)C3)c2n1 (racemic) | 144 to 147 °C
Cc1ncc(CO)c(NCc2ccc(-c3ccccc3-c3nnnn3C(c3ccccc3)(c3ccccc3)c3ccccc3)cc2)n1 | 112 to 114 °C
CC(=O)NC(=O)N1CC1C#N (stereo not drawn) | 139 to 142 °C
COc1cc(-n2cnc3cc(-c4ccc(Cl)cc4)sc3c2=O)ccc1OCCN1CCCC1 | 214 to 215 °C
CCOc1nc(N2CCSCC2)nc(Cl)c1[N+](=O)[O-] | 149 to 150 °C
CCCn1nc2c(N)nc3ccccc3c2c1CCN1CCCS1(=O)=O | 201 to 202 °C
O=c1[nH]c2cc(Cl)ccc2c(=O)c2c(C(F)(F)F)n[nH]c12 | 334 to 336 °C
CC(=O)OCC(CO)CCn1cnc2c(=O)[nH]c(N)nc21 (stereo not drawn) | 194 to 200 °C
CC(C)(C)c1ccc(Cn2cc(C(=O)C(=O)O)c3ccc(-c4ccc(OC(F)(F)F)cc4)cc32)cc1 | 183 to 186 °C
O=C(Cc1ccccc1)NC1C(=O)N2C1SC1(CCN(c3ccccc3)CC1)C2C(=O)OCc1ccccc1 (stereo not drawn) | 120 to 121 °C
O=C1N=c2ccccc2=N1 | 138 to 140 °C
CCCCCCCCCCCC(=O)NCCCCCC(=O)OO | 70 to 75 °C
CC1(C)Oc2ccc(C#N)cc2[C@@H](N2CCCC2=O)[C@@H]1O (relative stereo) | 226 °C
CCOC(=O)C(NC(=O)CS(C)=O)C(=O)OCC (stereo not drawn) | 85 to 87 °C
O=c1cc(C(F)(F)F)nc(Cl)n1-c1cc(Oc2ncccn2)c(Cl)cc1F | 132 to 134 °C
CCCC12CCC3C4=C(CCC3C1CCC2=O)CC(OC)=CC4 (stereo not drawn) | 128 to 131 °C
Cc1cc(C)c(Nc2nc(C)ccc2S(=O)(=O)c2ccc(-c3ccccc3)cc2)c(C)c1 | 140 to 141 °C
CCC1(CC)CN(C(C)(C)C)C(=O)C(C)(CC)N1OC(C)c1ccccc1 (stereo not drawn) | 76 to 79 °C
COC1CC2CCC1C2Nc1ccc([N+](=O)[O-])c2onnc12 (stereo not drawn) | 178 to 180 °C

Next, values leading:

melting point | Structure (SMILES)
106 to 108 °C | COc1cc(C(C)C)ccc1C1(NC(=O)c2ccccc2)C(=O)c2ccccc2C1=O
168 to 170 °C | O=c1ccn(Cc2ccccc2)c(=O)[nH]1
168 to 170 °C | Oc1ccc(Nc2cnc3cnc(-c4ccc(O)cc4)nc3c2)cc1
166 to 167 °C | NC(=O)c1cccc(-c2c(F)ccc3cc(Cc4cccc(C(F)(F)F)c4)sc23)c1
248 to 250 °C | COc1ccc(-c2nc(C(C)=O)c[nH]2)cc1
196 °C | CCOc1ccc2[nH]cc(/C(C#N)=C/c3cccnc3)c2c1
82 to 82.5 °C | Cn1nc(N)nc1NCCCCOc1cccc(CN2CCCCC2)c1
115 to 116 °C | O=C1c2ccccc2C(=O)N1C/C=C(\F)COc1ccc(Cl)cc1Cl
160 to 161 °C | O=C(O)CCc1cc(-c2ccccc2)nn1Cc1ccc(Cl)cc1Cl
249 °C | Cc1cc(-c2ncn3c(C(F)(F)F)cc(-c4ccc(Br)cc4)nc23)ccn1
101 °C | CC[C@H](CC(=O)NC(=O)OCc1ccccc1)Nc1ccc(C(F)(F)F)cc1
124 to 125 °C | COc1ccc(C(=O)c2ccc(OCc3ccccc3)cc2)c(O)c1
69 to 72 °C | CNC(=O)c1cccnc1C
157 to 161 °C | COc1ccc(C2=NN(CC(=O)Nc3cccc(-c4nnc(=O)sc4C)c3)C(=O)[C@H]3CC=CC[C@@H]23)cc1OC (relative stereo)
133 to 136 °C | CCN(c1ccc(Cl)cc1)c1cc(NC)nc(C)n1
144 to 145 °C | CC(NC(=O)Cc1cc(F)cc(F)c1)C(=O)NC1C(=O)N(Cc2ccccc2)Cc2ccccc21 (stereo not drawn)
128 to 129 °C | COC(=O)c1sc2cc(CCl)ccc2c1C
148 to 151 °C | COC(=O)c1cn(-c2ccc(Oc3ccc(C)cc3O)cc2)nn1
117 to 121 °C | CS(=O)(=O)c1ccc(C(CC2CCCC2)C(=O)Nc2nccs2)cc1C(F)(F)F (stereo not drawn)
295 °C | Cn1nc2nc(-c3ccc(N)c(C#N)c3)cc(C(F)(F)F)c2c1-c1ccccc1
135 to 149 °C | COc1ccc(-c2cc(=S)n(Cc3ccccc3)nc2-c2ccc(OC)cc2)cc1
94 to 95 °C | Cc1cc2cc(F)ccc2n1-c1ccc(OCc2ccccc2)cc1
124 °C | CCCOc1ccc2[nH]c(-c3cc(C)c(O)c(C)c3)c(C)c2c1
185 °C | COC(=O)C(C(=O)Cc1ccccc1)C1c2ccccc2C(=O)N1c1ccc2ccc(Cl)nc2n1 (stereo not drawn)
151 to 153 °C | N#CC1=C(Nc2ccc(F)cc2)c2ccccc2CC1
158 °C | COc1ccc(Oc2ccccc2)cc1NC(=O)c1ccn2c1CSC2c1cccnc1 (stereo not drawn)

melting point | Structure (SMILES)
202 °C | CCOC(=O)c1ccccc1N(CC(=O)N(C)c1ccccc1)C(=O)CN1C(=O)c2ccccc2C1=O
188 to 191 °C | CNC(=O)CC(O)(c1ccc(Br)cc1)c1cccnc1 (stereo not drawn)
250 to 251 °C | CN(C)c1ccc(-c2[nH]c(-c3ccc([N+](=O)[O-])cc3)nc2C(=O)Nc2nccs2)cc1
148 °C | CN(c1ccccc1-c1ccc2cnc(Nc3ccc(N4CCN(CC(N)=O)CC4)c(F)c3)nn12)S(C)(=O)=O
117 to 118 °C | CCCNC(=O)C(C)=Cc1ccc2c(c1)c(Cc1ccc(C(=O)OC)cc1OC)cn2CC(=O)N(C)C
161 °C | CC(C)(O)c1ccc(-c2ccc(C(C)(C)O)cc2)cc1
83 to 87 °C | O=C1C(=O)c2ccc(-c3ccccc3)cc2C2=C1SCC1(CCNCC1)O2
108 to 110 °C | CS(=O)(=O)Cc1cc(C(=O)C=O)ccc1OCc1ccccc1
91 °C | CC(Nc1ccc2[nH]c(=O)oc2c1)C(=O)N1CCC(Cc2ccccc2)CC1 (stereo not drawn)
316 to 318 °C | O=c1[nH]c2ccc(Cl)cc2c2cc(CO)nn12
272 °C | Cc1ccc(C)c(S(=O)(=O)n2ccc3c4c(N)nc(N)nc4ccc32)c1
70 °C | OCc1cccc(OCc2ccc3ccccc3n2)c1
88 to 91 °C | CCCC[C@H](NC(=O)[C@H](CC(C)C)NC(=O)COc1ccc(F)cc1)C(=O)CSCc1ccco1
104 to 106 °C | C#CCOc1ccc2cnn(C[C@H](C)NC(=O)OCc3ccccc3)c2c1
254 to 255 °C | Cc1cc(CNC(=O)c2cc(N3CCN(Cc4ccc(F)cc4)C3=O)n[nH]2)n[nH]1
222 to 235 °C | CCNC(=O)Nc1c(C(=O)c2ccccc2)[nH]c2cc(Cl)ccc12
117 to 120 °C | CN1C(=O)C(C(=N)c2ccccc2)=C(O)CC1c1ccccc1 (stereo not drawn)
203 °C | CC(=O)N1CC=C(C#Cc2ccc3c(c2)NC(=O)CC(c2cccc(C#N)c2)=N3)CC1
92 °C | O=C(Nc1cccc2ccccc12)OCCCC(O)c1ccccc1 (stereo not drawn)
205 to 207 °C | CCOC(=O)c1cn2c(cc(Br)c3ccccc32)n1
67.5 to 69 °C | O=S(=O)(/C(=C\c1ccccc1)CO)c1ccccc1
45.6 to 46.4 °C | CCCCCc1ccc(C=Nc2ccc(C#N)cc2)cc1
95 to 97 °C | CCOC(=O)N(c1ccccc1N)c1cccc(C)c1C
124 to 126 °C | O=C(c1cccnc1)c1cc(Br)cc(Br)c1
134 to 136 °C | N#CC(C(=O)c1ccc(Cl)cc1)=C1CCC(C(=O)O)N1 (stereo not drawn)
226 to 228 °C | C#Cc1ccnc(-c2cc(N)c(Br)cc2[N+](=O)[O-])c1
